Measurements from patent US9211283B2, “Nanoparticle carrier systems based on human serum albumin for photodynamic therapy” (Biolitec Pharma Marketing Ltd, priority 2009, dated 2015).
Blank lines part the entries; values can stand above or below the molecule they belong to.

Key:
[1] = Singlet oxygen generation and triplet parameters; assay type: physicochemical; conditions: in ethanol
[2] = tested on: Jurkat cells; assay: Dark toxicity (trypan blue test, apoptotic blebbing); assay type: cell-based; conditions: 3 μM mTHPC, 1 h, 3 h, 5 h and 24 h incubation in darkness, FIG. 6A
Description: Intracellular uptake and phototoxicity of the present nanoparticles formulation was studied using Jurkat-cell suspensions cultured in RPMI1640 medium. All cells were incubated in 3 μM mTHPC and mTHPC loaded into different concentration of HSA based nanoparticles for set period of time (1 h, 3 h, 5 h, 24 h). The HSA-based nanoparticles of varying HSA concentration was used to determine the intracellular uptake and phototoxicity effect of the cells suspension.
Trypan blue test was used to assess the necrotic cells, apoptotic cells were detected by their change of cell shape (apoptotic blebbing).
In each case Jurkat cells were incubated in five samples. After 1 h, 3 h, 5 h. and 24 h incubation in darkness an aliquot of each sample was investigated. Trypan blue test was used to assess the necrotic cells, apoptotic cells were detected by their change of cell shape (apoptotic blebbing). Little or no effect was found. In other words dark toxicity was not observed for the mTHPC concentrations used.

[3] = Fluorescence lifetime; assay type: physicochemical

- ΦΔ (±0.03) (singlet oxygen quantum yield) [1]: 0.75
- τT (lifetime of triplet state) [1]: 3.3 ± 0.1 μs
- τΔ (lifetime of singlet oxygen) [1]: 64.1 ± 0.2 μs
Structure (SMILES): O=C([O-])c1c(Cl)c(Cl)c(Cl)c(Cl)c1-c1c2cc(I)c(=O)c(I)c-2oc2c(I)c([O-])c(I)cc12.[Na+].[Na+] [Rose Bengal]

Structure (SMILES): Oc1cccc(-c2c3nc(c(-c4cccc(O)c4)c4ccc([nH]4)c(-c4cccc(O)c4)c4nc(c(-c5cccc(O)c5)c5ccc2[nH]5)CC4)C=C3)c1 [mTHPC, 5,10,15,20-tetrakis(3-hydroxyphenyl)-chlorin]
- Dark toxicity [2]: not observed

- τ3 [ns] ± 0.2 ([3]; fluorescence lifetime, in EtOH (monomers)): 9.6 ns
- Amplitude [%] of τ3 ([3]; in EtOH): 100%
Structure (SMILES): Oc1cccc(-c2c3nc(c(-c4cccc(O)c4)c4ccc([nH]4)c(-c4cccc(O)c4)c4nc(c(-c5cccc(O)c5)c5ccc2[nH]5)C=C4)C=C3)c1 [mTHPP, 5,10,15,20-tetrakis(m-hydroxyphenyl)-porphyrin]
